ChEMBL document CHEMBL1133183, “Quantized surface complementarity diversity (QSCD): a model based on small molecule-target complementarity” (J Med Chem, 2000)
pIC50, pKi: −log10 of the molar value.

Tests used:
[1] = Inhibitory activity against DNA topoisomerase I
[2] = target: Leukotriene B4 receptor 1 (Homo sapiens, UniProt Q15722); assay: Binding affinity to leukotriene B4 receptor
[3] = target: T1, Type-1 angiotensin II receptor (Oryctolagus cuniculus, UniProt P34976); assay: Binding affinity to Angiotensin II receptor, type 1
T1 sequence (P34976 whole entry): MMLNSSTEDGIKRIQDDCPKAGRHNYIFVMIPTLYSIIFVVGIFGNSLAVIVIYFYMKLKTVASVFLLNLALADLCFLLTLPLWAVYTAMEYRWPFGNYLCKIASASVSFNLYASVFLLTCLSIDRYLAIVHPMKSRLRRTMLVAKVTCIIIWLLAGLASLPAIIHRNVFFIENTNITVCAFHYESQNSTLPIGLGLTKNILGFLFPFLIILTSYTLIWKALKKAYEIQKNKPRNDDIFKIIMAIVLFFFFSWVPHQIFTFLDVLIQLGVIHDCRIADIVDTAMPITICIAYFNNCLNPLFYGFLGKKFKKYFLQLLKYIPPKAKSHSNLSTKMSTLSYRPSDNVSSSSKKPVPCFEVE

[4] = target: T2, Type-2 angiotensin II receptor (Rattus norvegicus, UniProt P35351); assay: Binding affinity to Angiotensin II receptor, type 2
T2 sequence (P35351 whole entry): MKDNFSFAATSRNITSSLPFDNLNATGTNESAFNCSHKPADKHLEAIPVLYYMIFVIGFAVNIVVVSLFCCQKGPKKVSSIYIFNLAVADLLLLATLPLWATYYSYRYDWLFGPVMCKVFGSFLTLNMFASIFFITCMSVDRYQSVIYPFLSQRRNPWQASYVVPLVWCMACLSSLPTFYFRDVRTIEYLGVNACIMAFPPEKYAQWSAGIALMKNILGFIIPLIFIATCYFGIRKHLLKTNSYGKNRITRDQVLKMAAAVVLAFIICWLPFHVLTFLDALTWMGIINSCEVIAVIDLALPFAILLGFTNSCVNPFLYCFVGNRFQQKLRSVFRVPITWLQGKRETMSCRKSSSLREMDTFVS

[5] = target: T2, Type-2 angiotensin II receptor; assay: Inhibitory activity against Angiotensin II receptor, type 2 binding
[6] = target: T3, Endothelin-1 receptor (Homo sapiens, UniProt P25101); assay: Binding affinity to Endothelin A receptor
T3 sequence (P25101 whole entry): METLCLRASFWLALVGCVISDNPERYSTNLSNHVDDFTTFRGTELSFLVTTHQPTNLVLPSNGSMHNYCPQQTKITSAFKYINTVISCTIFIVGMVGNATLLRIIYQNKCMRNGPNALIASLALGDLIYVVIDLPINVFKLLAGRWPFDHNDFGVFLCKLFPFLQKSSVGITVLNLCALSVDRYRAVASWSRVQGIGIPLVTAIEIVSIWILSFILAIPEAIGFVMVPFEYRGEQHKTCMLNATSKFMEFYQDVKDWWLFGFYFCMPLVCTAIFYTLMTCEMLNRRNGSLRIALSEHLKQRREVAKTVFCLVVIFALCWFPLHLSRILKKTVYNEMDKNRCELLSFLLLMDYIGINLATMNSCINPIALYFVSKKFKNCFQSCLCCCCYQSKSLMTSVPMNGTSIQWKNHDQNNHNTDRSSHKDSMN

[7] = target: Adenosine receptor A2a (Rattus norvegicus, UniProt P30543); assay: Binding affinity to Adenosine A2A receptor
Sequence of Adenosine receptor A2a (P30543 whole entry): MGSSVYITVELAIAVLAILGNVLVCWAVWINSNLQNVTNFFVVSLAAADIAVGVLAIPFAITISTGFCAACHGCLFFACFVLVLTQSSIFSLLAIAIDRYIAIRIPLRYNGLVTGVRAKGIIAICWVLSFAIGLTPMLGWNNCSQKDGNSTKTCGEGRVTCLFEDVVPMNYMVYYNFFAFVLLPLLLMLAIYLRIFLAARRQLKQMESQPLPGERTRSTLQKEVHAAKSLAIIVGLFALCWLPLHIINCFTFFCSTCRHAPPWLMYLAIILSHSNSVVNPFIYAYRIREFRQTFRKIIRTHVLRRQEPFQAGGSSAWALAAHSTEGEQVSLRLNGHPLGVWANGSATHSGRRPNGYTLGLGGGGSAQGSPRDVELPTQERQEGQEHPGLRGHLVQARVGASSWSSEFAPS

[8] = target: Prolyl endopeptidase (Sus scrofa, UniProt P23687); assay: Inhibition of Prolyl endopeptidase activity; assay type: functional
Sequence of Prolyl endopeptidase (P23687 whole entry): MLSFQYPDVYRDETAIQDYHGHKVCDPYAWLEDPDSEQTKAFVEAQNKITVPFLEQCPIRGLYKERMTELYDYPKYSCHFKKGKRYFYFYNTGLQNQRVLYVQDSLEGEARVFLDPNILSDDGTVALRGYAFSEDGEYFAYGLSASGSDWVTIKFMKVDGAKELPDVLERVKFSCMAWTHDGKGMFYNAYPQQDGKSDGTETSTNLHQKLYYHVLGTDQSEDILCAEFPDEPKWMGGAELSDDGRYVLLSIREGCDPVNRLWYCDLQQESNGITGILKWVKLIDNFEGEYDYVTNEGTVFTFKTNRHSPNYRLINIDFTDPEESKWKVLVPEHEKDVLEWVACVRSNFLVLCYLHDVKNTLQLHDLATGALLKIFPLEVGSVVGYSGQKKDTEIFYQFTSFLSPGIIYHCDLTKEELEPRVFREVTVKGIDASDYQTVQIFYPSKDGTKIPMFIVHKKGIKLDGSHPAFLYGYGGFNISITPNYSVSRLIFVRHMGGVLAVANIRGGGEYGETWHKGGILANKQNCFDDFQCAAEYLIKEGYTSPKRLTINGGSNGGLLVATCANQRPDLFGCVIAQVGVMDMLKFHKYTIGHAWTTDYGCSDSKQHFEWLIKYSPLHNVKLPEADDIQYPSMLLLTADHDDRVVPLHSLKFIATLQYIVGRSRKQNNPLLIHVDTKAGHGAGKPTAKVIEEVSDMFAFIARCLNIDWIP

Sequence of Leukotriene B4 receptor 1 (Q15722 whole entry): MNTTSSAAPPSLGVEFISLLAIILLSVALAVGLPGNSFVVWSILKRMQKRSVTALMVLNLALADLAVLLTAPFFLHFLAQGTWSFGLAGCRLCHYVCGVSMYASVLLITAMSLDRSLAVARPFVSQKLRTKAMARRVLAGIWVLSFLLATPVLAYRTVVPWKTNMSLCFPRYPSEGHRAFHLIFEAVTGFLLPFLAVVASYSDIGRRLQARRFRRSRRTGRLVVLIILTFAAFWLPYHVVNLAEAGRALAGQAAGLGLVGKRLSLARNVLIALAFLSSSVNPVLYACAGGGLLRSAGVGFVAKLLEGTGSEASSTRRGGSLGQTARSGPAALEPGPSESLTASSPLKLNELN

CC[C@@]1(O)C(=O)OCc2c1cc1n(c2=O)Cc2c-1nc1cnc(Br)cc1c2C
pIC50 [1]: 7.55

CCCc1c(OCCCOc2ccc3c(c2CCC)O[C@@H](C(=O)O)CC3)ccc(C(C)=O)c1CO
pKi [2]: 6.49

CCCc1c(OCCCOc2ccc(-c3cscn3)c(COC)c2CC2CC2)ccc2c1O[C@@H](C(=O)O)CC2
pKi [2]: 8.49

CCCCc1nn(-c2ccccc2C(F)(F)F)c(=O)n1Cc1ccc(-c2ccccc2-c2nnn[nH]2)cc1
pKi [3]: 8.92

CC[C@@]1(O)C(=O)OCc2c1cc1n(c2=O)Cc2c-1nc1cnc(C#N)cc1c2C
pIC50 [1]: 6.84

CCCCc1nn(-c2cccc([N+](=O)[O-])c2)c(=O)n1Cc1ccc(-c2ccccc2S(=O)(=O)NC(=O)c2ccccc2Cl)cc1
pKi [4]: 6.76 | pIC50 [5]: 7.51

COc1ccc(CC2C(c3ccc(Cl)c(Cl)c3)C(=O)O[C@@]2(O)c2ccc(OC)cc2)cc1 (stereo partly drawn)
pKi [6]: 6.77

CCNC(=O)[C@H]1C[C@@H](n2cnc3c(N)nc(C#Cc4nccs4)nc32)[C@H](OC)[C@@H]1OC
pKi [7]: 7.38

CCCCc1nn(-c2ccccc2C(C)C)c(=O)n1Cc1ccc(-c2ccccc2-c2nn[nH]n2)cc1
pKi [3]: 8.85

CCCCc1nn(-c2ccccc2C(F)(F)F)c(=O)n1Cc1ccc(-c2ccccc2S(=O)(=O)NC(=O)OC(C)(C)C)cc1
pKi [4]: 7.77 | pIC50 [5]: 9.35

CCOC(=O)C(=O)[C@@H]1CCCN1C(=O)[C@@H]1CCCN1C(=O)CCCc1ccccc1
pIC50 [8]: 7.99
